In US20090275574A1, “NOVEL COMPOUNDS-300” (ASTRAZENECA AB, priority 2008, published 2009):
pEC50: −log10 of the molar value.

Key:
cloned human M4 receptor = target: T1, cloned human M4 receptor (Homo sapiens, UniProt P08173); assay: hM4 receptor GTPγS binding; format: biochemical; details: CHO membranes expressing hM4, [35S]GTPγS binding
T1 construct: purchased Perkin-Elmer RBHM4M; host or cells: Chinese hamster ovary cells (CHO), membranes
T1 sequence (P08173 1-479): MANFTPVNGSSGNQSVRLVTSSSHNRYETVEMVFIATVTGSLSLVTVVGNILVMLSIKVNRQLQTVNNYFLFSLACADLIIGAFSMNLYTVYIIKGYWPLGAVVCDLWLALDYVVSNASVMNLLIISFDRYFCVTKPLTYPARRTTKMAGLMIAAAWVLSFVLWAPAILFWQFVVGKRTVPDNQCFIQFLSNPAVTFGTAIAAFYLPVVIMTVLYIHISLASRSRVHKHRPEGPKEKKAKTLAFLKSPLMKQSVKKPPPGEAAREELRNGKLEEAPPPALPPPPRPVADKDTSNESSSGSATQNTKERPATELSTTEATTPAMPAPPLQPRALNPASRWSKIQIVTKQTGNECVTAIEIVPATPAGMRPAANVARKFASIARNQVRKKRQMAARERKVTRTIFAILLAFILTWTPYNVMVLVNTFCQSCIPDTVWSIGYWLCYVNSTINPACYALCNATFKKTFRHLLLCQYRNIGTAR
Protocol: hM4 Receptor GTPγS Binding Membranes produced from Chinese hamster ovary cells (CHO) expressing the cloned human M4 receptor (human Muscarinic receptor subtype 4, gene bank access NM_000741), are obtained from Perkin-Elmer (RBHM4M). The membranes are thawed at 37° C., passed 3 times through a 23-gauge blunt-end needle, diluted in the GTPγS binding buffer (50 mM Hepes, 20 mM NaOH, 100 mM NaCl, 1 mM EDTA, 5 mM MgCl2, pH 7.4, 100 μM DTT). The EC50, IC50 and Emax of the compounds of the invention are evaluated from 10-point dose-response curves (three fold concentration range) done in 60 μl in 384-well non-specific binding surface plate (Corning). Ten microliters from the dose-response curves plate (5× concentration) are transferred to another 384 well plate containing 25 μl of the following: 10 μg of hM4 membranes, 500 μg of Flashblue beads (Perkin-Elmer) and GDP 40 μM. An additional 15 μl containing 3.3× (60,000 dpm) of GTPγ^35S (0.4 nM final) are added to the wells resulting in a total well volume of 50 μl. Basal and maximal stimulated [^35S]GTPγS binding are determined in absence and presence of 30 μM final of acetylcholine agonist. The membranes/beads mix are pre-incubated for 15 minutes at room temperature with 40 μM GDP prior to distribution in plates (20 μM final). The reversal of acetylcholine-induced stimulation (10 μM final) of [^35S]GTPγS binding is used to assay the antagonist properties (IC50) of the compounds. The plates are incubated for 60 minutes at room temperature then centrifuged at 400 rpm for 5 minutes. The radioactivity (cpm) is counted in a Trilux (Perkin-Elmer). Values of EC50, IC50 and Emax are obtained using sigmoidal fits of a non-linear curve-fitting program (XLfit version 4.2.2 Excel add-in version 4.2.2 build 18 math 1Q version 2.1.2 build 18) of percent stimulated [^35S]GTPγS binding vs. log(molar ligand). All pEC50 and pIC50 values are reported as arithmetic means±standard error of mean of ‘n’ independent experiments.

[1] = target: T2, hM1 (human Muscarinic receptor subtype 1) (Homo sapiens, UniProt P11229); assay: Human M1 calcium mobilization FLIPR assay; format: cell-based; details: hM1 expressed in CHO cells, intracellular Ca2+ release (FLIPR)
T2 construct: expressed in transfected cells; host or cells: CHO cells (ATCC)
T2 sequence (P11229 1-460): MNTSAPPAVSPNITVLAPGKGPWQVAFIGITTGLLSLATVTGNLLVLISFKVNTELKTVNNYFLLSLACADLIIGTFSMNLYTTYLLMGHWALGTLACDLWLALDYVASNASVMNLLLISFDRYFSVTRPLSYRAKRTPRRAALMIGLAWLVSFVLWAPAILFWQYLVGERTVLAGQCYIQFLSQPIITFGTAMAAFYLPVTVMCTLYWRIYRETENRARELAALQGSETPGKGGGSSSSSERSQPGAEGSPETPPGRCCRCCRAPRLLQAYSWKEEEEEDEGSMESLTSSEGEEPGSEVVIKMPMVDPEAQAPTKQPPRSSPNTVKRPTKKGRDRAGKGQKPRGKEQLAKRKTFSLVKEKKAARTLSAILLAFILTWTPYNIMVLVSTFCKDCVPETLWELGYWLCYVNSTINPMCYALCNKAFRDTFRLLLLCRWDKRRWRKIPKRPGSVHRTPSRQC
Outline: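 CHO cells expressing human M1, M3 or M5 receptors, dye-loaded 60 min at 37 °C; Ca2+ release read by FLIPR (510-570 nm). M3/M5 inhibition measured against 2 nM acetylcholine added after compound; M1 agonism from maximal RFU, others max minus min. pEC50/pIC50 from sigmoidal fits, 10-point three-fold dilutions.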

- pEC50 (cloned human M4 receptor): < 4.55
- pEC50 [1]: 7.92
Compound: CCOC[C@@H]1CC[C@H](N2CCC(N3C(=O)CO[C@H]4CCCC[C@@H]43)CC2)C1 [Example 43, (4aS,8aS)-4-(1-((1S,3R)-3-(ethoxymethyl)cyclopentyl)piperidin-4-yl)hexahydro-2H-benzo[b][1,4]oxazin-3(4H)-one]
